What was measured:
Melatonin receptor = Melatonin receptor (Gallus gallus, UniProt P49288+P51050+P49285); test: Binding affinity to compete for 2-[125I]iodomelatonin binding to chicken retinal membranes; parameters: species or system Retina, Membrane
[1] = molecular target: Melatonin receptor (Oryctolagus cuniculus); test: Inhibition of […] calcium dependent dopamine release from the rabbit retina.
[2] = molecular target: Melatonin receptor (Gallus gallus) (UniProt P49288+P51050+P49285); test: Relative binding affinity to chicken retinal membranes compared to 2-[125I]iodomelatonin.; conditions: Retina; Membrane
Oryctolagus cuniculus = species: Oryctolagus cuniculus; test: Tested for in vitro inhibition of calcium-dependent release of [3H]dopamine from rabbit retina; NE- No effect; type: functional

SMILES	Ki (Melatonin receptor)	IC50 [1]	Relative affinity [2]	IC50 (Oryctolagus cuniculus)
CC(=O)NC1CCc2ccccc2C1 (stereo unspecified)	665 nM	52 nM	1170	
CCCC(=O)NC1CCc2cccc(OC)c2C1 (stereo unspecified)	3.6 nM	1.2 nM	6.3	
COc1ccc2c(c1)CCC(N)C2.Cl (stereo unspecified)	> 100000 nM			
CCC(=O)NC1CCc2ccccc2C1 (stereo unspecified)	145 nM	8.1 nM	254	
COc1ccccc1CCNC(C)=O	420 nM	3 nM	737	
COc1ccc2c(c1)CC(NC(C)=O)CC2 (stereo unspecified)	121 nM	1.6 nM	212	
COc1cccc2c1CC(NC(=O)c1ccccc1)CC2 (stereo unspecified)	23100 nM	22 nM	40500	
COc1cccc2c1CC(NC(=O)Cc1ccccc1)CC2 (stereo unspecified)				Not Active
COc1cccc2c1CC(NC(=O)CCl)CC2 (stereo unspecified)	3.75 nM	0.063 nM	6.6	
COc1cccc2c1CCC(NC(C)=O)C2 (stereo unspecified)	1950 nM	6.5 nM	3420	
COc1cccc(CCNC(C)=O)c1	581 nM		1020	
COc1cccc2c1CC(NC(=O)C1CC1)CC2 (stereo unspecified)	141 nM	2.5 nM	247	
CCCC(=O)NCCc1ccccc1OC	748 nM		1310	
COc1cc2c(CCNC(C)=O)c(C)[nH]c2c(Cl)c1Cl	0.23 nM	0.01 nM	0.4	
COc1cccc2c1CC(NC(=O)C(C)C)CC2 (stereo unspecified)	312 nM	7.9 nM	547	
CCCC(=O)NCCc1c[nH]c2ccc(OC)cc12	0.73 nM		1.28	
CCCC(=O)NC1CCc2ccccc2C1 (stereo unspecified)	44.4 nM	1 nM	78	
O=C(CCl)NC1CCc2ccccc2C1 (stereo unspecified)	95.1 nM	1.3 nM	167	
CCC(=O)NCCc1ccccc1OC	789 nM		1380	
CCC(=O)NCCc1c[nH]c2ccc(OC)cc12	0.27 nM		0.47	
